Tested on: DOHH2 cells
Assay: Cell proliferation assay (MTS), DOHH2 cells, 120 h
Assay type: cell-based
Details: Homo sapiens, DOHH-2, 120 h
Description: Cell Proliferation Assays
MTS testing kit was purchased from Promega. The RPMI-1640, Fetal bovine serum and Penicillin-Streptomycin were purchased from Gibco. Dimethyl sulfoxide (DMSO) was purchased from Sigma.
To investigate whether a compound is able to inhibit the activity of BCL-2 in cells, a mechanism-based assay using DOHH2 (DSMZ No.® ACC 47) and RS4;11 (ATCC® CRL-1873™) cell was developed. In this assay, inhibition of Bcl-2 was detected by the inhibition of DOHH2 cells proliferation. DOHH2 cells were cultured in culture flasks to 40-80% confluence in RPMI-1640 plus 10% fetal bovine serum. Cells were collected and plated onto 96-well plates at desired cell density (5000 cells/well). Plates were incubated overnight at 37° C., with 5% CO2 to adhere. Compounds were added to the plates, and the final compound concentrations were 10000, 3333, 1111, […], 124, 41, 14, 4.6 and 1.5 nM. Plates plated with DOHH2 or RS4;11 cells were placed at 37° C., with 5% CO2 for 120 h (DOHH2) or 72 h (RS4;11) respectively. 20 μl MTS/100 μl medium mixture solution were added to each well and incubate the plates for exactly 2 hours. The reaction was stopped by adding 25 μl 10% SDS per well. Measure absorbance at 490 nm and 650 nm (reference wavelength). IC50 was calculated using GraphPad Prism 5.0.
Select compounds prepared as described above were assayed according to the biological procedures described herein.

| SMILES | IC50 [nM] |
| --- | --- |
| CC1(C)CCC(CN2CCN(c3ccc(C(=O)NS(=O)(=O)c4cc5c(c([N+](=O)[O-])c4)N[C@@H](CCOC(=O)N4CCOCC4)CO5)c(Oc4cnc5[nH]ccc5c4)c3)CC2)=C(c2ccc(Cl)cc2)C1 [Example 2-135, (S)-2-(7-(N-(2-((1H-pyrrolo[2,3-b]pyridin-5-yl)oxy)-4-(4-((4′-chloro-5,5-dimethyl-3,4,5,6-tetrahydro-[1,1′-biphenyl]-2-yl)methyl)piperazin-1-yl)benzoyl)sulfamoyl)-5-nitro-3,4-dihydro-2H-benzo[b][1,4]oxazin-3-yl) ethyl morpholine-4-carboxylate] | 186 |
| CC1(C)CCC(CN2CCN(c3ccc(C(=O)NS(=O)(=O)c4cc5c(c([N+](=O)[O-])c4)N[C@H](CNS(C)(=O)=O)CO5)c(Oc4cnc5[nH]ccc5c4)c3)CC2)=C(c2ccc(Cl)cc2)C1 [Example 2-136, (R)-2-((1H-pyrrolo[2,3-b]pyridin-5-yl)oxy)-4-(4-((4′-chloro-5,5-dimethyl-3.4.5.6-tetra-hydro-[1,1′-biphenyl]-2-yl)methyl)piperazin-1-yl)-N-((3-(methylsulfonamidomethyl)-5-nitro-3,4-dihydro-2H-benzo[b][1,4]oxa-zin-7-yl)sulfonyl)benzamide] | 378 |
| CCS(=O)(=O)NC[C@@H]1COc2cc(S(=O)(=O)NC(=O)c3ccc(N4CCN(CC5=C(c6ccc(Cl)cc6)CC(C)(C)CC5)CC4)cc3Oc3cnc4[nH]ccc4c3)cc([N+](=O)[O-])c2N1 [Example 2-137, (R)-2-((1H-pyrrolo[2,3-b]pyridin-5-yl)oxy)-4-(4-((4′-chloro-5,5-dimethyl-3,4,5,6-tetra-hydro-[1,1′-biphenyl]-2-yl)methyl)piperazin-1-yl)-N-((3-(ethylsulfonamidomethyl)-5-nitro-3,4-dihydro-2H-benzo[b][1,4]oxazin-7-yl)sulfonyl)benzamide] | 139 |
| CC1(C)CCC(CN2CCN(c3ccc(C(=O)NS(=O)(=O)c4cc5c(c([N+](=O)[O-])c4)N[C@H](CN4CCOC4=O)CO5)c(Oc4cnc5[nH]ccc5c4)c3)CC2)=C(c2ccc(Cl)cc2)C1 [Example 2-146, (R)-2-((1H-pyrrolo[2,3-b]pyridin-5-yl)oxy)-4-(4-((4′-chloro-5,5-dimethyl-3,4,5,6-tetra-hydro-[1,1′-biphenyl]-2-yl)methyl)piperazin-1-yl)-N-((5-nitro-3-((2-oxooxazolidin-3-yl)methyl)-3,4-dihydro-2H-benzo[b][1,4]oxazin-7-yl)sulfonyl)benzamide] | 160 |
| CC1(C)CCC(CN2CCN(c3ccc(C(=O)NS(=O)(=O)c4cc5c(c([N+](=O)[O-])c4)N[C@H](c4ccccc4)CO5)c(Oc4cnc5[nH]ccc5c4)c3)CC2)=C(c2ccc(Cl)cc2)C1 [Example 2-165, (R)-2-((1H-pyrrolo[2,3-b]pyridin-5-yl)oxy)-4-(4-((4′-chloro-5,5-dimethyl-3,4,5,6-tetra-hydro-[1,1′-biphenyl]-2-yl)methyl)piperazin-1-yl)-N-((5-nitro-3-phenyl-3,4-dihydro-2H-benzo[b][1,4]oxazin-7-yl)sulfonyl)benza-mide] | 77 |
| CC1(C)CCC(CN2CCN(c3ccc(C(=O)NS(=O)(=O)c4cc5c(c([N+](=O)[O-])c4)N[C@H](c4ccc(Cl)cc4)CO5)c(Oc4cnc5[nH]ccc5c4)c3)CC2)=C(c2ccc(Cl)cc2)C1 [Example 2-167, (R)-2-((1H-pyrrolo[2,3-b]pyridin-5-yl)oxy)-4-(4-((4′-chloro-5,5-dimethyl-3,4,5,6-tetra-hydro-[1,1′-biphenyl]-2-yl)methyl)piperazin-1-yl)-N-((3-(4-chlorophenyl)-5-nitro-3,4-dihydro-2H-benzo[b][1,4]oxazin-7-yl)sulfo-nyl)benzamide] | 29 |
| COc1ccc([C@@H]2COc3cc(S(=O)(=O)NC(=O)c4ccc(N5CCN(CC6=C(c7ccc(Cl)cc7)CC(C)(C)CC6)CC5)cc4Oc4cnc5[nH]ccc5c4)cc([N+](=O)[O-])c3N2)cc1 [Example 2-169, (R)-2-((1H-pyrrolo[2,3-b]pyridin-5-yl)oxy)-4-(4-((4′-chloro-5,5-dimethyl-3,4,5,6-tetra-hydro-[1,1′-biphenyl]-2-yl)methyl)piperazin-1-yl)-N-((3-(4-methoxyphenyl)-5-nitro-3,4-dihydro-2H-benzo[b][1,4]oxazin-7-yl)sulfonyl)benzamide] | 39 |
| CC1(C)CCC(CN2CCN(c3ccc(C(=O)NS(=O)(=O)c4cc5c(c([N+](=O)[O-])c4)N[C@H](c4ccc(C#N)cc4)CO5)c(Oc4cnc5[nH]ccc5c4)c3)CC2)=C(c2ccc(Cl)cc2)C1 [Example 2-170, (R)-2-((1H-pyrrolo[2,3-b]pyridin-5-yl)oxy)-4-(4-((4′-chloro-5,5-dimethyl-3,4,5,6-tetra-hydro-[1,1′-biphenyl]-2-yl)methyl)piperazin-1-yl)-N-((3-(4-cyanophenyl)-5-nitro-3,4-dihydro-2H-benzo[b][1,4]oxazin-7-yl)sulfo-nyl)benzamide] | 464 |
| CC1(C)CCC(CN2CCN(c3ccc(C(=O)NS(=O)(=O)c4cc5c(c([N+](=O)[O-])c4)N[C@@H](c4ccccn4)CO5)c(Oc4cnc5[nH]ccc5c4)c3)CC2)=C(c2ccc(Cl)cc2)C1 [Example 2-171, (S)-2-((1H-pyrrolo[2,3-b]pyridin-5-yl)oxy)-4-(4-((4′-chloro-5,5-dimethyl-3,4,5,6-tetra-hydro-[1,1′biphenyl]-2-yl)methyl)piperazin-1-yl)-N-((5-nitro-3-(pyridin-2-yl)-3,4-di-hydro-2H-benzo[b][1,4]oxazin-7-yl)sulfonyl) benzamide] | 302 |
| CC1(C)CCC(CN2CCN(c3ccc(C(=O)NS(=O)(=O)c4cc5c(c([N+](=O)[O-])c4)N[C@@H](c4ccccc4)CO5)c(Oc4cnc5[nH]ccc5c4)c3)CC2)=C(c2ccc(Cl)cc2)C1 [Example 2-172, (S)-2-((1H-pyrrolo[2,3-b]pyridin-5-yl)oxy)-4-(4-((4′-chloro-5,5-dimethyl-3,4,5,6-tetra-hydro[1,1′-biphenyl]-2-yl)methyl)piperazin-1-yl)-N-((5-nitro-3-phenyl-3,4-dihydro-2H-benzo[b][1,4]oxazin-7-yl)sulfonyl)benza-mide] | 14 |
| CC1(C)CCC(CN2CCN(c3ccc(C(=O)NS(=O)(=O)c4cc5c(c([N+](=O)[O-])c4)N[C@@H](c4ccc(F)cc4)CO5)c(Oc4cnc5[nH]ccc5c4)c3)CC2)=C(c2ccc(Cl)cc2)C1 [Example 2-173, (S)-2-((1H-pyrrolo[2,3-b]pyridin-5-yl)oxy)-4-(4-((4′-chloro-5,5-dimethyl-3,4,5,6-tetra-hydro-[1,1′-biphenyl]-2-yl)methyl)piperazin-1-yl)-N-((3-(4-fluorophenyl)-5-nitro-3,4-dihydro-2H-benzo[b][1,4]oxazin-7-yl)sulfo-nyl)benzamide] | 24 |
| CC1(C)CCC(CN2CCN(c3ccc(C(=O)NS(=O)(=O)c4cc5c(c([N+](=O)[O-])c4)N[C@@H](c4ccc(Cl)cc4)CO5)c(Oc4cnc5[nH]ccc5c4)c3)CC2)=C(c2ccc(Cl)cc2)C1 [Example 2-174, (S)-2-((1H-pyrrolo[2,3-b]pyridin-5-yl)oxy)-4-(4-((4′-chloro-5,5-dimethyl-3,4,5,6-tetra-hydro-[1,1′-biphenyl]-2-yl)methyl)piperazin-1-yl)-N-((3-(4-chlorophenyl)-5-nitro-3,4-dihydro-2H-benzo[b][1,4]oxazin-7-yl)sulfo-nyl)benzamide] | 23 |
| CC1(C)CCC(CN2CCN(c3ccc(C(=O)NS(=O)(=O)c4cc5c(c([N+](=O)[O-])c4)N[C@H](c4ccc(F)cn4)CO5)c(Oc4cnc5[nH]ccc5c4)c3)CC2)=C(c2ccc(Cl)cc2)C1 [Example 2-178, (R)-2-((1H-pyrrolo[2,3-b]pyridin-5-yl)oxy)-4-(4-((4′-chloro-5,5-dimethyl-3,4,5,6-tetra-hydro-[1,1′-biphenyl]-2-yl)methyl)piperazin-1-yl)-N-((3-(5-fluoropyridin-2-yl)-5-nitro-3,4-dihydro-2H-benzo[b][1,4]oxazin-7-yl)sulfonyl)benzamide] | 28 |
| CC1(C)CCC(CN2CCN(c3ccc(C(=O)NS(=O)(=O)c4cc5c(c([N+](=O)[O-])c4)N[C@@H](Cc4ccccc4Cl)CO5)c(Oc4cnc5[nH]ccc5c4)c3)CC2)=C(c2ccc(Cl)cc2)C1 [Example 2-191, (S)-2-((1H-pyrrolo[2,3-b]pyridin-5-yl)oxy)-4-(4-((4′-chloro-5,5-dimethyl-3,4,5,6-tetra-hydro-[1,1′-biphenyl]-2-yl)methyl)piperazin-1-yl)-N-((3-(2-chlorobenzyl)-5-nitro-3,4-dihydro-2H-benzo[b][1,4]oxazin-7-yl)sulfo-nyl)benzamide] | 153 |
| CC1(C)CCC(CN2CCN(c3ccc(C(=O)NS(=O)(=O)c4cc5c(c([N+](=O)[O-])c4)N[C@@H](c4ccc(F)cn4)CO5)c(Oc4cnc5[nH]ccc5c4)c3)CC2)=C(c2ccc(Cl)cc2)C1 [Example 2-197, (S)-2-((1H-pyrrolo[2,3-b]pyridin-5-yl)oxy)-4-(4-((4′-chloro-5,5-dimethyl-3,4,5,6-tetra-hydro-[1,1′-biphenyl]-2-yl)methyl)piperazin-1-yl)-N-((3-(5-fluoropyridin-2-yl)-5-nitro-3,4-dihydro-2H-benzo[b][1,4]oxazin-7-yl)sulfonyl)benzamide] | 412 |

Reference: patent publication US11091478B2 (Fochon Pharmaceuticals, Ltd., priority 2017, dated 2021)
